“Also recorded” adds a separate entry of the source. Read-outs that look alike come from different tables or passages of the source.
How the values were obtained:
[1] = system: P2Y1; conditions: read-out: EC50 toward P2Y1; functional assay; cited from earlier work
[2] = system: P2Y12; conditions: read-out: EC50 toward P2Y12; functional assay; cited from earlier work
[3] = molecular target: T1, human platelet P2Y1 receptors (Homo sapiens, UniProt P47900); conditions: read-out: P2Y1 inhibition IC50; cited from earlier work
T1 sequence (P47900 whole entry): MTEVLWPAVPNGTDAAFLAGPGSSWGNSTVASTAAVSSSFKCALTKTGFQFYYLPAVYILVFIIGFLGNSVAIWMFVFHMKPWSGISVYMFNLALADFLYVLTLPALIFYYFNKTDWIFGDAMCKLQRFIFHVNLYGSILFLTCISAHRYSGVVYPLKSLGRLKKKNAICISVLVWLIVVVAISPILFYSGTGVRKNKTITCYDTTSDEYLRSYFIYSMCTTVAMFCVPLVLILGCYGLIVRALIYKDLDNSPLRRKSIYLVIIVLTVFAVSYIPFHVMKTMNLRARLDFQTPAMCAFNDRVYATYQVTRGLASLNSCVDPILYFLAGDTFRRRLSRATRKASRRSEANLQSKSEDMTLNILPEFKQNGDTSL

[4] = molecular target: T2, human platelet P2Y12 receptors (Homo sapiens, UniProt Q9H244); conditions: cited from earlier work
T2 sequence (Q9H244 whole entry): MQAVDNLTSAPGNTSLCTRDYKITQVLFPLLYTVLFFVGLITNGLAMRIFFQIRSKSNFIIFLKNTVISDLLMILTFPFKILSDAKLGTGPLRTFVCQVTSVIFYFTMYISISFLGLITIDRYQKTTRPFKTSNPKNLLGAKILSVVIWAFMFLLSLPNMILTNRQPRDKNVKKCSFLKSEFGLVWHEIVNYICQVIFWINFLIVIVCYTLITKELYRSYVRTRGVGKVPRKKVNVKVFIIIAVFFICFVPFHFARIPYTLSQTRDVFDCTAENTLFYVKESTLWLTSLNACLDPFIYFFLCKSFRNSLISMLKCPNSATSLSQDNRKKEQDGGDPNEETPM

[5] = molecular target: T3, platelet P2X1 receptors (Homo sapiens, UniProt P51575); conditions: cited from earlier work
T3 sequence (P51575 1-399): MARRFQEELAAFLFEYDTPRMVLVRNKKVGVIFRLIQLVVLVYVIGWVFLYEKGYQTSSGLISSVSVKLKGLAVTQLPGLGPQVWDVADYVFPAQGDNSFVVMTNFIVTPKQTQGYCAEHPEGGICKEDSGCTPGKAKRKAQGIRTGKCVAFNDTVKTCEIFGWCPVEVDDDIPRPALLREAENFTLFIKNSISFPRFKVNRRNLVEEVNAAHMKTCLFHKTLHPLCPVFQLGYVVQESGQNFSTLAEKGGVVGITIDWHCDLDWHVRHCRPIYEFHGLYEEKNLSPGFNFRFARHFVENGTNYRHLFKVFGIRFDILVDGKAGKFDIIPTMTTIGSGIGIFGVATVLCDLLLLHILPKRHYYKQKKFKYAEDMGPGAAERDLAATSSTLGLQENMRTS

[6] = molecular target: T2, human platelet P2Y12 receptors; assay: P2Y12-mediated VASP phosphorylation assay; assay type: cell-based
[7] = system: ADP induced human platelet aggregation; assay: ADP-induced human platelet aggregation, 96-well microplate method; assay type: cell-based
[8] = molecular target: human P2Y6 receptors (Homo sapiens, UniProt Q15077); assay: Effect on human P2Y6 receptors; conditions: data not shown
Chain of human P2Y6 receptors (Q15077 whole entry): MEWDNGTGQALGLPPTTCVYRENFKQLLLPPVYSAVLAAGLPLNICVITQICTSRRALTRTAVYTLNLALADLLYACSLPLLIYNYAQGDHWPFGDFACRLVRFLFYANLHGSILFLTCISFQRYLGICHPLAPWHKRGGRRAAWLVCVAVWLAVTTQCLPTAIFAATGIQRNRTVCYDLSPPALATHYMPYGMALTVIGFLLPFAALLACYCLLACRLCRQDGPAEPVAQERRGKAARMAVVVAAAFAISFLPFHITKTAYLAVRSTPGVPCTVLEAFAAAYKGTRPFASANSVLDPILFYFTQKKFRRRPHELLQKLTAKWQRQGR

[9] = molecular target: human P2Y4 receptors (Homo sapiens, UniProt P51582); assay: Effect on human P2Y4 receptors; conditions: data not shown
Chain of human P2Y4 receptors (P51582 whole entry): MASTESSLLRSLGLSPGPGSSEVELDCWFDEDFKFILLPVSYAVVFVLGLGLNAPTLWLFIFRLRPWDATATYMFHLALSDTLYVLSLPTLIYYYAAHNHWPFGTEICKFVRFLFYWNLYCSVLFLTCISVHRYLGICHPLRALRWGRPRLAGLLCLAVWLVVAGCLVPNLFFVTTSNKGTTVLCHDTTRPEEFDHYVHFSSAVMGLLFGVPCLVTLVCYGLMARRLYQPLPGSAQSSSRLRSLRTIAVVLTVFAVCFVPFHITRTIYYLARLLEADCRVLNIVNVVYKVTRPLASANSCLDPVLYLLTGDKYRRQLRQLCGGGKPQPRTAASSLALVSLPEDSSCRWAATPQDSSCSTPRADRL

[10] = molecular target: human P2Y2 receptors (Homo sapiens, UniProt P41231); assay: Effect on human P2Y2 receptors; conditions: data not shown
Chain of human P2Y2 receptors (P41231 whole entry): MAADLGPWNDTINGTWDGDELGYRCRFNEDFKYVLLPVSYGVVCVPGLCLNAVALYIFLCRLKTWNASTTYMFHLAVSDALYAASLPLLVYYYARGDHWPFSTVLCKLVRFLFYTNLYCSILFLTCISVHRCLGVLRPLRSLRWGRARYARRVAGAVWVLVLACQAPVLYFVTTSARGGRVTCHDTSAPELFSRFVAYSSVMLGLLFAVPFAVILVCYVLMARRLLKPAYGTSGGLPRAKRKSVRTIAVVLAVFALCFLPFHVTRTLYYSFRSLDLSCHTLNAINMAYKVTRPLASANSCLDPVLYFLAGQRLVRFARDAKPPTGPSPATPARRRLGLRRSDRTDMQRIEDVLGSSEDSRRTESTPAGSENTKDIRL

[11] = system: GPIIb-IIIa and P-selectin on the surface of human platelets; assay: Reversibility of inhibition of activation marker expression after dilution; assay type: cell-based; conditions: 30 min with 10 nM, then 100x dilution with platelet poor plasma; 20 μM ADP
[12] = molecular target: T3, platelet P2X1 receptors; assay: P2X1-mediated entry of extracellular Ca2+; assay type: cell-based
[13] = system: ADP induced human platelet aggregation; assay: ADP induced human platelet aggregation by optical aggregometry; assay type: cell-based; conditions: 25 and 100 nM; pre-incubation 0, 5, 15 min; data not shown
[14] = molecular target: T1, human platelet P2Y1 receptors; conditions: 3 μM ADP; human whole blood; N=3 unless stated
[15] = read-out: IC50, nM (95% Confidence Interval), no pre-incubation, 3 μM ADP
[16] = read-out: IC50, nM (95% Confidence Interval), pre-incubation with test compound, 5 μM ADP
[17] = read-out: IC50, nM (95% Confidence Interval), pre-incubation with test compound, 20 μM ADP

Row | Compound | IC50 [7, 15] | IC50 [7, 16] | IC50 [7, 17] | also measured
1 | 2-methylthioadenosine 5′-diphosphate [Compound 2-MeSADP] | – | – | – | EC50 [1]: 0.006 µM; EC50 [2]: 0.0003 µM
2 | Nc1ncnc2c1ncn2[C@@H]1O[C@H](COP(=O)(O)OP(=O)(O)OP(=O)(O)OP(=O)(O)OC[C@H]2O[C@@H](n3cnc4c(N)ncnc43)[C@H](O)[C@@H]2O)[C@@H](O)[C@H]1O [Ap4A, P^1,P^4-Di(adenosine-5′) tetraphosphate] | – | – | – | IC50 [3]: 32.5 µM; P2Y12 antagonist character [4]: partial antagonist; IC50 ([4]; read-out: P2Y12 inhibition IC50): > 250 µM; P2X1 agonist activity [5]: effective P2X1 receptor agonist
3 | CSc1nc(N)c2ncn([C@@H]3O[C@H](COP(=O)([S-])OP(=O)([O-])C(Cl)P(=O)([O-])OP(=O)([S-])OC[C@H]4O[C@@H](n5cnc6c(N)nc(SC)nc65)[C@H](O)[C@@H]4O)[C@@H](O)[C@H]3O)c2n1.[Na+].[Na+].[Na+].[Na+] (mixture of isomers) [Compound 5, P^1,P^4-di-(2-methylthio-5′-adenosine) P^1,P^4-dithio-P^2,P^3-chloromethylenetetraphosphate] | 36.1 nM | 11.6 nM | 27.6 nM | Effect on human P2Y6 receptors [8]: did not have an effect; Effect on human P2Y4 receptors [9]: did not have an effect; Effect on human P2Y2 receptors [10]: did not have an effect; Recovery of ability to express the activation markers after dilution [11]: 80–90%; P2X1 agonist activity [12]: practically devoid of agonist activity; also recorded: did not have an effect; Pre-incubation time for full pre-incubation effect [13]: ≤ 15 min
4 | CSCCNc1nc(SCCC(F)(F)F)nc2c1ncn2[C@@H]1O[C@H](COP(=O)(O)OP(=O)(O)C(Cl)(Cl)P(=O)(O)O)[C@@H](O)[C@H]1O [Cangrelor] | – | – | – | P2Y1 inhibition IC50±SEM [14]: Not inhibitor
5 | Nc1ncnc2c1ncn2[C@@H]1O[C@H](COP(=O)(O)OP(=O)(O)O)[C@@H](O)[C@H]1O [ADP, adenosine diphosphate] | – | – | – | EC50 [1]: 8 µM; EC50 [2]: 0.069 µM
6 | Nc1ncnc2c1ncn2[C@@H]1O[C@H](COP(=O)(S)OP(=O)(O)C(Cl)P(=O)(O)OP(=O)(S)OC[C@H]2O[C@@H](n3cnc4c(N)ncnc43)[C@H](O)[C@@H]2O)[C@@H](O)[C@H]1O (mixture of isomers) [Compound 1, reference compound] | 437 nM | 757 nM | 7680 nM | –
7 | CNc1ncnc2c1ncn2[C@H]1C[C@H](OP(=O)(O)O)[C@@H](COP(=O)(O)O)O1 [MRS2179, reference compound] | – | – | – | P2Y12 inhibition IC50±SEM ([6]; 3 μM ADP, VASP phosphorylation, human blood): Not inhibitor

Continued, in another order:

Row | IC50 [7, 15] | IC50 [7, 16] | IC50 [7, 17] | Compound | also measured
8 | 71.3 nM | 1020 nM | 3950 nM | CSc1nc(N)c2ncn([C@@H]3O[C@H](COP(=O)([O-])OP(=O)([O-])OP(=O)([O-])OP(=O)([O-])OC[C@H]4O[C@@H](n5cnc6c(N)nc(SC)nc65)[C@H](O)[C@@H]4O)[C@@H](O)[C@H]3O)c2n1.[Na+].[Na+].[Na+].[Na+] [Compound 2, P^1,P^4-di-(2-Methylthio-5′-adenosine) tetraphosphate] | P2Y12 antagonist character [6]: full antagonist
9 | 3930 nM | 12000 nM | 22400 nM | CCCNc1ncnc2c1ncn2[C@@H]1O[C@H](COP(=O)(S)OP(=O)(O)C(Cl)P(=O)(O)OP(=O)(S)OC[C@H]2O[C@@H](n3cnc4c(NCCC)ncnc43)[C@H](O)[C@@H]2O)[C@@H](O)[C@H]1O (mixture of isomers) [Compound 14, P^1,P^4-di-(N^6-propyl-5′-adenosine) P^1,P^4-dithio-P^2,P^3-chloromethylenetetraphosphate] | activation at 1 µM ([12]; read-out: P2X1 activation %±SEM): -0.01 ± 0.91%
10 | 616 nM | – | – | CNc1nc(SC)nc2c1ncn2[C@@H]1O[C@H](COP(=O)([S-])OP(=O)([O-])C(Cl)P(=O)([O-])OP(=O)([S-])OC[C@H]2O[C@@H](n3cnc4c(NC)nc(SC)nc43)[C@H](O)[C@@H]2O)[C@@H](O)[C@H]1O.[Na+].[Na+].[Na+].[Na+] (mixture of isomers) [Compound 15, P^1,P^4-di-(2-methylthio-N^6-methyl-5′-adenosine) P^1,P^4-dithio-P^2,P^3-chloromethylenetetraphosphate] | P2X1 agonist activity [12]: effective P2X1 agonist
11 | 46.1 nM | 8.48 nM | 13.4 nM | CCSc1nc(N)c2ncn([C@@H]3O[C@H](COP(=O)(S)OP(=O)(O)C(Cl)P(=O)(O)OP(=O)(S)OC[C@H]4O[C@@H](n5cnc6c(N)nc(SCC)nc65)[C@H](O)[C@@H]4O)[C@@H](O)[C@H]3O)c2n1 (mixture of isomers) [Compound 6, P^1,P^4-di-(2-ethylthio-5′-adenosine) P^1,P^4-dithio-P^2,P^3-chloromethylenetetraphosphate] | –
12 | 1090 nM | 90.7 nM | 172 nM | CCCCCSc1nc(N)c2ncn([C@@H]3O[C@H](COP(=O)(S)OP(=O)(O)C(Cl)P(=O)(O)OP(=O)(S)OC[C@H]4O[C@@H](n5cnc6c(N)nc(SCCCCC)nc65)[C@H](O)[C@@H]4O)[C@@H](O)[C@H]3O)c2n1 (mixture of isomers) [Compound 9, P^1,P^4-di-(2-pentylthio-5′-adenosine) P^1,P^4-dithio-P^2,P^3-chloromethylenetetraphosphate] | –
13 | 33.1 nM | 8.89 nM | 32.6 nM | CSc1nc(N)c2ncn([C@@H]3O[C@H](COP(=O)(O)OP(=O)(O)C(Cl)P(=O)(O)OP(=O)(O)OC[C@H]4O[C@@H](n5cnc6c(N)nc(SC)nc65)[C@H](O)[C@@H]4O)[C@@H](O)[C@H]3O)c2n1 (some centres unmarked) [Compound 4, P^1,P^4-di-(2-methylthio-5′-adenosine) P^2,P^3-chloromethylenetetraphosphate] | –

Reference: publication PMC4674339 (European journal of medicinal chemistry, 2015)
